What was measured:
[1] = tested on: PPAR/RXR, FXR/RXR, or LXR/RXR; conditions: cited from earlier work
RXR homodimers = experiment: Activation of RXR homodimers; type: cell-based
RARα = RARα (Homo sapiens, UniProt P10276); conditions: α isoform
SkBr3 cells = experiment: Growth inhibition of SkBr3 breast cancer cells, DAPI nuclei count; type: cell-based; conditions: Her2+ SkBr3 cell line, FIG. 1B; IRX4204 10-1000 nM, trastuzumab 0.1-10 μg/ml
Text: (§1) MCF7 is an ER^+ PR^+ Her2^− cell line. SkBr3 is an ER^− PR^− Her2^+ cell line. […] After a further 6 days, the cells were fixed with 4% paraformaldehyde in phosphate buffered saline (PBS).
(§2) Additionally the panel of breast cancer cell lines was expanded to also include the ER^+ PR^+ Her2^+ cell line BT474 and the ER^+ PR^− Her2^+ cell line MDA-MB-361.

RAR/RXR = experiment: Activation of non-permissive heterodimer RAR/RXR; type: cell-based
RARβ = RARβ (Homo sapiens, UniProt P10826); conditions: β isoform
LXR/RXR = experiment: Activation of permissive heterodimer LXR/RXR; type: cell-based
MCF7 cells = experiment: Growth inhibition of MCF7 breast cancer cells, DAPI nuclei count; type: cell-based; conditions: Her2− MCF7 cell line, FIG. 1A; IRX4204 10-1000 nM, trastuzumab 0.1-10 μg/ml
Text: as §1, §2

FXR/RXR = experiment: Activation of permissive heterodimer FXR/RXR; type: cell-based
Nurr1/RXR heterodimer = experiment: Activation of permissive heterodimer Nurr1/RXR; type: cell-based
PPAR/RXR = experiment: Activation of permissive heterodimer PPAR/RXR; type: cell-based
RARγ = RARγ (Homo sapiens, UniProt P13631); conditions: γ isoform
RARγ, sequence (P13631 whole entry, species assumed, canonical isoform): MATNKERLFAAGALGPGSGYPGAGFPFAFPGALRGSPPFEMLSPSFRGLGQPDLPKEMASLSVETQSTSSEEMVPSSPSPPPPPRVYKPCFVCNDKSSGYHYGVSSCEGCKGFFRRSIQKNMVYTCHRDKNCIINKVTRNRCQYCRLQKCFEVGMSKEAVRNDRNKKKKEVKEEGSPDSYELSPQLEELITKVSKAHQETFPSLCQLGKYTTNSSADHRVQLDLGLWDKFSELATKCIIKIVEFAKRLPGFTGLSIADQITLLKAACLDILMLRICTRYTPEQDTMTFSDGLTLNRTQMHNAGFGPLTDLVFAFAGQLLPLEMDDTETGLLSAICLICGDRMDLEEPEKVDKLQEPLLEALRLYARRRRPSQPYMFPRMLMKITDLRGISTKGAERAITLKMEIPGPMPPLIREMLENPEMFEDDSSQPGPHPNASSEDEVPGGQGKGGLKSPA

RARβ, sequence (P10826 whole entry, species assumed, canonical isoform): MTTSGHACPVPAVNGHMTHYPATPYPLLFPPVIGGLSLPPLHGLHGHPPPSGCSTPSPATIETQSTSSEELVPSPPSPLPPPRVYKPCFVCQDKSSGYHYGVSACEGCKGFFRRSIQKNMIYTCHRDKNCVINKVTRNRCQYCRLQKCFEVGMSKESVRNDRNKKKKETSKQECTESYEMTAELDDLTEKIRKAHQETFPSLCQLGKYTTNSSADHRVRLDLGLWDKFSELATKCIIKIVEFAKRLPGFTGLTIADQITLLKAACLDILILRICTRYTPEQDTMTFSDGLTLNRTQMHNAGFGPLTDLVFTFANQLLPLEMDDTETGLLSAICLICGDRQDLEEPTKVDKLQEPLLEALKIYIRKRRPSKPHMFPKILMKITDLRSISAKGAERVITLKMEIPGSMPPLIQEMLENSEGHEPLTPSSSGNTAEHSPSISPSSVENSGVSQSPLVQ
RARα, sequence (P10276 whole entry, species assumed, canonical isoform): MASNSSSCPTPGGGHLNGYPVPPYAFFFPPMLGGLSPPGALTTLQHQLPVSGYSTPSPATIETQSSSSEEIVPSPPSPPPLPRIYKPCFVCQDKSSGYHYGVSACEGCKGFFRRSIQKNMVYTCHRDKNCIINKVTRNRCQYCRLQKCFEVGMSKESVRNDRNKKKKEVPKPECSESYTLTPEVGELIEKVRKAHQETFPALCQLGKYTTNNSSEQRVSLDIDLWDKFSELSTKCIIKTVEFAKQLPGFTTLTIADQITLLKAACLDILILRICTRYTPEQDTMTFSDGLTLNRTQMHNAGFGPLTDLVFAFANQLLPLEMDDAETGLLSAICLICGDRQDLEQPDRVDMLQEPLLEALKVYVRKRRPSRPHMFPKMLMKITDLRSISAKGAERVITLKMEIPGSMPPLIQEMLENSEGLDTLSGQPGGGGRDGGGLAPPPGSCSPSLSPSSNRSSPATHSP

SMILES: Cc1cc2c(cc1C1(c3ccc(C(=O)O)cn3)CC1)C(C)(C)CCC2(C)C [LGD268]
- activation of one or more of PPAR/RXR, FXR/RXR, or LXR/RXR (in words) [1]: activates one or more

SMILES: CC(/C=C/[C@@H]1C[C@]1(C)c1ccc2c(c1)C(C)(C)CCC2(C)C)=C\C(=O)O [IRX4204, 3,7-dimethyl-6(S),7(S)-methano,7-[1,1,4,4-tetramethyl-1,2,3,4-tetrahydron-aphth-7-yl]2(E), 4(E) heptadienoic acid]
- activation of RXR homodimers (in words) (RXR homodimers): specifically activate
- RAR EC10 (concentration effective to cause a 10% of maximal activation of the RAR) (RARα): 300 nM
- growth inhibitory effect (in words) (SkBr3 cells): moderate growth inhibitory effect
- activation of non-permissive heterodimers such as RAR/RXR (in words) (RAR/RXR): does not activate
- RAR EC10 (concentration effective to cause a 10% of maximal activation of the RAR) (RARβ): 200 nM
- activation of LXR/RXR (in words) (LXR/RXR): does not activate
- growth inhibitory effect (in words) (MCF7 cells): neither agent had more than marginal effect
- activation of FXR/RXR (in words) (FXR/RXR): does not activate
- activation of the Nurr1/RXR heterodimer (in words) (Nurr1/RXR heterodimer): specifically activates
- activation of PPAR/RXR (in words) (PPAR/RXR): does not activate
- RAR EC10 (concentration effective to cause a 10% of maximal activation of the RAR) (RARγ): 200 nM

Source: patent US20220211652A1, “USE OF AN RXR AGONIST IN TREATING HER2+ CANCERS” (Io Therapeutics, Inc, priority 2019, published 2022)
